This is an account of results in US7125997B2, “Differential tumor cytotoxicity compounds and compositions” (IRM LLC, priority 2002, dated 2006).

pIC50: −log10 of the molar value.

A word on the pIC50: it is the IC50 on a negative log10 scale, so that one unit is a factor of ten. Read a high pIC50 as a small IC50.

The experiment relates to Human SW620 colon tumor cells. Briefly: alamarBlue cell viability (cytotoxicity) assay, SW620. The note with it: SW-620, 48 h, SW620 cell line, two days incubation, alamarBlue fluorescence. The format is cell-based. The method, then: Human SW620 colon tumor cells are cultivated using 10% FCS/DMEM (Invitrogen) medium. The cells are plated into 384 well plates at a density of 8000 cells per well in a volume of 50 μL. The cells are placed in a 37° C. incubator and allowed to adhere overnight. Test compounds are added to the cells in a volume of 500 nL (final DMSO concentration in assay is 1%). Serial dilutions of the test compound are added (the top concentration of compound is 10 micromolar (final assay concentration) followed by 11 two fold dilutions. The cells are incubated for a further two days. A solution (50 μL) comprised of 20% alamarBlue™ (Biosource International, Inc.) and 80% assay medium is added to each well and the plates are incubated at 37° C. for a further 4 hours. The plates are read by fluorescence (530 nm excitation, 580 nm emission) on an Acquest reader (LJL Biosystems). The IC50 is defined as the concentration of a test compound at the end of the incubation period, which leads to 50% of cell viability per well compared with the control (concentration at semi-maximum inhibition of cell growth).
A general note: Alamar Blue is a resazurin reagent that responds to reducing activity.

Take `O=C(Nc1ccc(N2CCOCC2)cc1)c1ccc(Nc2ccc(OC(F)(F)F)cc2)cc1` [Example 1, N-(4-Morpholin-4-yl-phenyl)-4-(4-trifluoromethoxy-phenylamino)-benzamide]: the pIC50 is 7.59.
